Data taken from patent publication US12364752B2, “Methods of enhancing immunogenicity of poorly immunogenic antigen-specific vaccines using oral yeast beta-glucans” (priority 2018, dated 2025).

Experiments:
[1] = test system: Ramos tumor cells; experiment: Ramos xenografts in SCID mice, Rituxan plus oral botanical adjuvants; format: in vivo; settings: Rituxan alone at 5 μg dose
Description: SCID mice (Jackson Lab, Bar Harbor ME) were first implanted subcutaneously in the flank area with Ramos tumor cells (a human lymphoma cell line; Pagel et al., Blood 108:328-36 (2006)) freshly harvested from culture and suspended in 100 μl matrigel (BD Biosciences, Billerica MA). When small palpable tumors started to appear (6-8 mm size), mice were randomly separated into treatment groups of 5 mice each. Mice were then given either oral botanical adjuvant, intravenous Rituxan mAb, or oral botanical adjuvant plus Rituxan mAb for 3 weeks. MAb was given twice a week through the tail vein. 2 mg of the tested botanical adjuvant (20 mg/ml solution or suspension in LPS-free water) was given by intragastric injection for 5 times a week. Tumor sizes (length and width) were measured twice a week with calipers. Mice were sacrificed when tumors were larger than 20 mm in length. For each botanical adjuvant, two endpoints were obtained: (1) positive anti-tumor effect [defined as statistically different from control group (treated with antibody alone)] and (2) anti-tumor index defined as (Mean tumor growth rate in mice treated with antibody alone)/(Mean tumor growth rate in mice treated with botanical adjuvant+antibody).

[2] = Livingston et al. 1994; cited from earlier work
[3] = test system: neuroblastoma; experiment: Phase I trial of GD2/GD3 bivalent vaccine with oral beta-glucan; settings: at 150 μg/m^2 s.c. with bivalent vaccine
Description: Patients with neuroblastoma in ≥2nd complete/very good partial remission received vaccine subcutaneously (at weeks 1, 2, 3, 8, 20, 32 and 52). The bivalent vaccine contained 30 μg each of GD2 and GD3 stabilized as lactones and conjugated to the immunologic carrier protein keyhole limpet hemocyanin (KLH); and OPT-821, which was dose escalated as 50, 75, 100, and 150 μg/m^2 per s.c. injection. Oral beta-glucan administration (40 mg/kg/day, 14 days on/14 days off x 12 cycles) was started at week 6 (FIG. 14).

Q: Which tumor growth suppressed [1] does the source give for Rituxan: rituximab mAb here?
A: 30%

Q: What does the source list for QS21?
A: maximal tolerated dose [2]: 20 µg; dose-limiting toxicity [3]: no dose-limiting toxicity
